Results published in PubChem BioAssay AID248 (DTP/NCI, 2004).
Several values for one entry are separate records, joined by “and”; a condition that tells them apart may be missing. Identical values can stand only once. Toxic doses and inconclusive results are not listed. Rule as the data show it: active = T/C of 150% or more; inactive = T/C below 125%.

Test system: L1210 leukemia ip in BDF1 mice, survival T/C
Assay: NCI In Vivo Anticancer Drug Screen. Data for tumor model L1210 Leukemia (intraperitoneal) in B6D2F1 (BDF1) mice
Conditions: endpoint: mean survival time, higher = longer survival
Outline: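 Tumor was transplanted into mice, which were then dosed with test compound or vehicle alone. Survival was recorded for each group, and the treated figure was expressed relative to the control figure.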

[1] = dose: 100.0 mg/kg/injection, schedule: Q01DX009 (ip), vehicle: Klucel (hydroxypropylcellulose) (HPC)
[2] = dose: 100.0 mg/kg/injection, schedule: Q04DX003 (ip), vehicle: Klucel (hydroxypropylcellulose) (HPC)
[3] = dose: 200.0 mg/kg/injection, schedule: Q01DX009 (ip), vehicle: Klucel (hydroxypropylcellulose) (HPC)
[4] = dose: 200.0 mg/kg/injection, schedule: Q04DX003 (ip), vehicle: Klucel (hydroxypropylcellulose) (HPC)
[5] = dose: 400.0 mg/kg/injection, schedule: Q01DX009 (ip), vehicle: Klucel (hydroxypropylcellulose) (HPC)
[6] = dose: 400.0 mg/kg/injection, schedule: Q04DX003 (ip), vehicle: Klucel (hydroxypropylcellulose) (HPC)
[7] = dose: 100.0 mg/kg/injection, schedule: Q01DX009 (ip), vehicle: saline with Tween-80
[8] = dose: 200.0 mg/kg/injection, schedule: Q01DX009 (ip), vehicle: saline with Tween-80
[9] = dose: 100.0 mg/kg/injection, schedule: Q01DX001 (ip), vehicle: carboxymethylcellulose (CMC)
[10] = dose: 200.0 mg/kg/injection, schedule: Q01DX001 (ip), vehicle: carboxymethylcellulose (CMC)
[11] = dose: 100.0 mg/kg/injection, schedule: Q04DX003 (ip), vehicle: saline with Tween-80
[12] = dose: 200.0 mg/kg/injection, schedule: Q04DX003 (ip), vehicle: saline with Tween-80
[13] = dose: 400.0 mg/kg/injection, schedule: Q04DX003 (ip), vehicle: saline with Tween-80

Measured: T/C

CCN(CC)c1ccc2nc3ccc(N(CC)CC)cc3[n+](-c3ccccc3)c2c1
inactive: dose: 3.0 mg/kg/injection, schedule: Q01DX009 (ip), vehicle: saline 111 % of control | dose: 6.0 mg/kg/injection, schedule: Q01DX009 (ip), vehicle: saline 115 % of control

Cc1ccc(S(=O)(=O)N(CCCc2c(Cc3ccccc3)nc(N)[nH]c2=O)c2ccccc2)cc1
inactive: [1] 88 % of control | [2] 97 % of control and 105 % of control | [3] 93 % of control | [4] 113 % of control and 88 % of control | [5] 100 % of control | [6] 93 % of control

Cn1nc(N)c2cc(C#N)c(N)nc21
inactive: [1] 90 % of control | [3] 90 % of control | [5] 95 % of control

OCC(O)C1CCCCN1 (stereo unspecified)
inactive: dose: 100.0 mg/kg/injection, schedule: Q01DX009 (ip), vehicle: saline 91 % of control | dose: 100.0 mg/kg/injection, schedule: Q04DX003 (ip), vehicle: saline 97 % of control | dose: 200.0 mg/kg/injection, schedule: Q01DX009 (ip), vehicle: saline 100 % of control | dose: 200.0 mg/kg/injection, schedule: Q04DX003 (ip), vehicle: saline 97 % of control | dose: 400.0 mg/kg/injection, schedule: Q04DX003 (ip), vehicle: saline 97 % of control

N#CC1=C(N)CCC(C#N)(c2ccccc2)C1 (stereo unspecified)
inactive: [7] 98 % of control | [8] 91 % of control

COc1c(O)cc2oc3cc(O)c(CC=C(C)C)c(O)c3c(=O)c2c1CC=C(C)C
inactive: dose: 100.0 mg/kg/injection, schedule: Q01DX001 (ip), vehicle: Klucel (hydroxypropylcellulose) (HPC) 97 % of control | [1] 96 % of control | [2] 105 % of control | dose: 200.0 mg/kg/injection, schedule: Q01DX001 (ip), vehicle: Klucel (hydroxypropylcellulose) (HPC) 97 % of control | [4] 105 % of control | dose: 400.0 mg/kg/injection, schedule: Q01DX001 (ip), vehicle: Klucel (hydroxypropylcellulose) (HPC) 98 % of control | [6] 100 % of control

OCCCCCCN=Cc1ccccc1O.OCCCCCCN=Cc1ccccc1O.[Cu]
inactive: dose: 9.5 mg/kg/injection, schedule: Q01DX001 (ip), vehicle: other 95 % of control | dose: 19.0 mg/kg/injection, schedule: Q01DX001 (ip), vehicle: other 100 % of control and 92 % of control | dose: 19.0 mg/kg/injection, schedule: Q01DX009 (ip), vehicle: other 93 % of control | dose: 38.0 mg/kg/injection, schedule: Q01DX001 (ip), vehicle: other 94 % of control and 95 % of control | dose: 38.0 mg/kg/injection, schedule: Q01DX009 (ip), vehicle: other 95 % of control | dose: 75.0 mg/kg/injection, schedule: Q01DX001 (ip), vehicle: other 95 % of control and 102 % of control | dose: 75.0 mg/kg/injection, schedule: Q01DX009 (ip), vehicle: other 96 % of control

CN(CC(=O)C(C#N)c1ccccc1)c1ccccc1 (stereo unspecified)
inactive: dose: 50.0 mg/kg/injection, schedule: Q01DX001 (ip), vehicle: carboxymethylcellulose (CMC) 98 % of control | [9] 93 % of control | [10] 91 % of control | dose: 400.0 mg/kg/injection, schedule: Q01DX001 (ip), vehicle: carboxymethylcellulose (CMC) 98 % of control

CCOc1ccn(CC(=O)c2ccc(Cl)s2)c(=O)n1
inactive: [7] 93 % of control | [11] 100 % of control | [8] 90 % of control | [12] 100 % of control | dose: 400.0 mg/kg/injection, schedule: Q01DX009 (ip), vehicle: saline with Tween-80 86 % of control | [13] 101 % of control

CCOC(=O)c1cnc(SC)nc1NCc1ccc(Cl)c(Cl)c1
inactive: [11] 94 % of control | [12] 102 % of control | [13] 96 % of control

CCCCC[Si](C)(C)C
inactive: dose: 100.0 mg/kg/injection, schedule: Q01DX001 (ip), vehicle: saline 103 % of control | dose: 200.0 mg/kg/injection, schedule: Q01DX001 (ip), vehicle: saline 97 % of control | dose: 400.0 mg/kg/injection, schedule: Q01DX001 (ip), vehicle: saline 105 % of control

O=C(CCCCC(=O)Nc1cc(C(=O)Nc2ccc(C3=NCCN3)cc2)ccc1C(=O)Nc1ccc(C2=NCCN2)cc1)Nc1cc(C(=O)Nc2ccc(C3=NCCN3)cc2)ccc1C(=O)Nc1ccc(C2=NCCN2)cc1
inactive: dose: 1.25 mg/kg/injection, schedule: Q01DX Z (ip), vehicle: saline 90 % of control | dose: 2.5 mg/kg/injection, schedule: Q01DX Z (ip), vehicle: saline 95 % of control | dose: 5.0 mg/kg/injection, schedule: Q01DX Z (ip), vehicle: saline 88 % of control | dose: 10.0 mg/kg/injection, schedule: Q01DX Z (ip), vehicle: saline 101 % of control | dose: 15.0 mg/kg/injection, schedule: Q01DX Z (ip), vehicle: methylcellulose (MC) 103 % of control | dose: 30.0 mg/kg/injection, schedule: Q01DX Z (ip), vehicle: methylcellulose (MC) 110 % of control

COCc1nc2c(=S)nc[nH]c2n1N
inactive: [9] 105 % of control | [10] 98 % of control
